Assay results: paper PMC6001238, “Iterative Chemical Engineering of Vancomycin Leads to Novel Vancomycin Analogs With a High in Vitro Therapeutic Index” (Frontiers in Microbiology, 2018)
Values after ≈ are worked out from the molar mass of the structure shown.

Experiments:
[1] = test system: E. faecalis VRE 29; assay: MIC, broth microdilution, vancomycin-resistant E. faecalis VRE 29 (VanA); format: cell-based, Enterococcus faecalis; conditions: for MIC: Enterococcus faecalis VRE 29 (vancomycin-resistant), read-out: MIC; for MIC-fold improvement vs. vancomycin: VRE 29, ratio of MIC of vancomycin and MIC of analogue
Summary of the method: (§1)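 Broth microdilution per CLSI; controls = ultrapure water, non-inoculated broth. One set: + vancomycin 10 μM final alongside test analogue/control drug.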

[2] = test system: human cervix carcinoma (HeLa) cells; assay: Cytostatic activity, HeLa cell proliferation; format: cell-based; conditions: mean ± SD of three experiments; highest concentration tested 250 µM; 4 days; read-out: Toxicity (IC50) HeLa
Summary of the method: (§2)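 Readout: Coulter cell number after drug exposure at 37°C. Durations differ by line (L1210 2 days; CEM 3 days; HeLa 4 days). Stock suspension 300,000–500,000 cells/mL, diluted by mixing with compound. Endpoint: IC50 vs negative control.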

[3] = test system: Murine leukemia (L1210) cells; assay: Cytostatic activity, L1210 cell proliferation; format: cell-based; conditions: mean ± SD of three experiments; highest concentration tested 250 µM; 2 days; read-out: Toxicity (IC50) L1210
Summary of the method: as §2

[4] = test system: MRSA KS2; assay: MIC, broth microdilution, MRSA KS2; format: cell-based, Staphylococcus aureus; conditions: for MIC-fold improvement vs. vancomycin: MRSA KS2, ratio of MIC of vancomycin and MIC of analogue; for MIC: Staphylococcus aureus MRSA KS2, read-out: MIC
Summary of the method: as §1

[5] = test system: E. faecalis VRE 53; assay: MIC, broth microdilution, vancomycin-resistant E. faecalis VRE 53 (VanA); format: cell-based, Enterococcus faecalis; conditions: for MIC: Enterococcus faecalis VRE 53 (vancomycin-resistant), read-out: MIC; for MIC-fold improvement vs. vancomycin: VRE 53, ratio of MIC of vancomycin and MIC of analogue
Summary of the method: as §1

[6] = test system: E. faecalis VSE 1; assay: MIC, broth microdilution, vancomycin-sensitive E. faecalis (VSE 1); format: cell-based, Enterococcus faecalis; conditions: for MIC: Enterococcus faecalis VSE 1 (vancomycin-sensitive), read-out: MIC; for MIC-fold improvement vs. vancomycin: VSE 1, ratio of MIC of vancomycin and MIC of analogue
Summary of the method: as §1

[7] = test system: MRSA KS89; assay: MIC, broth microdilution, MRSA KS89; format: cell-based, Staphylococcus aureus; conditions: for MIC-fold improvement vs. vancomycin: MRSA KS8, ratio of MIC of vancomycin and MIC of analogue; for MIC: Staphylococcus aureus MRSA KS8, read-out: MIC
Summary of the method: as §1

[8] = test system: E. faecalis VRE 37; assay: MIC, broth microdilution, vancomycin-resistant E. faecalis VRE 37 (VanA); format: cell-based, Enterococcus faecalis; conditions: for MIC: Enterococcus faecalis VRE 37 (vancomycin-resistant), read-out: MIC; for MIC-fold improvement vs. vancomycin: VRE 37, ratio of MIC of vancomycin and MIC of analogue
Summary of the method: as §1

[9] = test system: L1210, CEM and HeLa cell lines; assay: Cytostatic activity, average or summary over L1210, CEM and HeLa; format: cell-based; conditions: average of L1210, CEM and HeLa; read-out: Toxicity (IC50) Average
Summary of the method: as §2

[10] = test system: S. aureus VSSA (ATCC 6538); assay: MIC, broth microdilution, vancomycin-sensitive S. aureus (VSSA/MSSA, ATCC 6538); format: cell-based, Staphylococcus aureus; conditions: for MIC: Staphylococcus aureus VSSA, read-out: MIC; for MIC-fold improvement vs. vancomycin: VSSA, ratio of MIC of vancomycin and MIC of analogue
Summary of the method: as §1

[11] = test system: S. aureus VISA/HIP5827; assay: MIC, broth microdilution, vancomycin-intermediate S. aureus VISA HIP5827; format: cell-based, Staphylococcus aureus; conditions: for MIC: Staphylococcus aureus VISA/HIP5827, read-out: MIC; for MIC-fold improvement vs. vancomycin: VISA/HIP5827, ratio of MIC of vancomycin and MIC of analogue
Summary of the method: as §1

[12] = test system: human T-lymphocyte (CEM) cells; assay: Cytostatic activity, CEM cell proliferation; format: cell-based; conditions: mean ± SD of three experiments; highest concentration tested 250 µM; 3 days; read-out: Toxicity (IC50) CEM
Summary of the method: as §2

[13] = test system: S. aureus VRSA; assay: MIC, broth microdilution, vancomycin-resistant S. aureus (VRSA); format: cell-based, Staphylococcus aureus; conditions: for MIC: Staphylococcus aureus VRSA, read-out: MIC; for MIC-fold improvement vs. vancomycin: VRSA, ratio of MIC of vancomycin and MIC of analogue
Summary of the method: as §1

[14] = test system: MRSA KS6; assay: MIC, broth microdilution, MRSA KS6; format: cell-based, Staphylococcus aureus; conditions: for MIC-fold improvement vs. vancomycin: MRSA KS6, ratio of MIC of vancomycin and MIC of analogue; for MIC: Staphylococcus aureus MRSA KS6, read-out: MIC
Summary of the method: as §1

[15] = test system: MRSA KS1; assay: MIC, broth microdilution, MRSA KS1; format: cell-based, Staphylococcus aureus; conditions: for MIC-fold improvement vs. vancomycin: MRSA KS1, ratio of MIC of vancomycin and MIC of analogue; for MIC: Staphylococcus aureus MRSA KS1, read-out: MIC
Summary of the method: as §1

[16] = test system: E. faecalis VRE 6; assay: MIC, broth microdilution, vancomycin-resistant E. faecalis VRE 6 (VanA); format: cell-based, Enterococcus faecalis; conditions: for MIC: Enterococcus faecalis VRE 6 (vancomycin-resistant), read-out: MIC; for MIC-fold improvement vs. vancomycin: VRE 6, ratio of MIC of vancomycin and MIC of analogue
Summary of the method: as §1

| SMILES | MIC [1] [µM] | MIC-fold improvement vs. vancomycin [1] | IC50 [2] [µM] | IC50 [3] [µM] | MIC-fold improvement vs. vancomycin [4] | MIC [4] [µM] | MIC [5] [µM] | MIC-fold improvement vs. vancomycin [5] | MIC [6] [µM] | MIC-fold improvement vs. vancomycin [6] | MIC-fold improvement vs. vancomycin [7] | MIC [7] [µM] | MIC [8] [µM] | IC50 [9] [µM] | MIC [10] [µM] | MIC-fold improvement vs. vancomycin [10] | MIC [11] [µM] | MIC-fold improvement vs. vancomycin [11] | IC50 [12] [µM] | MIC [13] [µM] | also measured |
| --- | --- | --- | --- | --- | --- | --- | --- | --- | --- | --- | --- | --- | --- | --- | --- | --- | --- | --- | --- | --- | --- |
| CNC(CC(C)C)C(=O)NC1C(=O)NC(CC(N)=O)C(=O)NC2C(=O)NC3C(=O)NC(C(=O)NC(C(=O)NCCNC(=O)C=Cc4ccc(NS(=O)(=O)c5ccc(Cl)cc5)cc4)c4cc(O)cc(O)c4-c4cc3ccc4O)C(O)c3ccc(c(Cl)c3)Oc3cc2cc(c3OC2OC(CO)C(O)C(O)C2OC2CC(C)(N)C(O)C(C)O2)Oc2ccc(cc2Cl)C1O (centres unmarked) [Vanc-62] | 6.25 (≈ 11.3 µg/mL) | 64 | 86 ± 42 | > 250 | 4 | 0.20 (≈ 0.362 µg/mL) | 25 (≈ 45.3 µg/mL) | 16 | 0.39 (≈ 0.706 µg/mL) | 4 | 2 | 0.39 (≈ 0.706 µg/mL) | 12.5 (≈ 22.6 µg/mL) | 195 | 0.39 (≈ 0.706 µg/mL) | 2 | 1.56 (≈ 2.83 µg/mL) | 4 | ≥ 250 | 0.78 (≈ 1.41 µg/mL) | MIC-fold improvement vs. vancomycin [13]: 128; MIC-fold improvement vs. vancomycin [14]: 2; MIC [14]: 0.39 µM (≈ 0.706 µg/mL); MIC-fold improvement vs. vancomycin [15]: 4; MIC [15]: 0.20 µM (≈ 0.362 µg/mL); MIC [16]: 3.13 µM (≈ 5.67 µg/mL); MIC-fold improvement vs. vancomycin [16]: 64 |
| CNC(CC(C)C)C(=O)NC1C(=O)NC(CC(N)=O)C(=O)NC2C(=O)NC3C(=O)NC(C(=O)NC(C(=O)NCCCNC(=O)c4ccc5cc(NS(=O)(=O)c6ccccc6)ccc5c4)c4cc(O)cc(O)c4-c4cc3ccc4O)C(O)c3ccc(c(Cl)c3)Oc3cc2cc(c3OC2OC(CO)C(O)C(O)C2OC2CC(C)(N)C(O)C(C)O2)Oc2ccc(cc2Cl)C1O (centres unmarked) [Vanc-63] | 6.25 (≈ 11.3 µg/mL) | 64 | 69 ± 74 | > 250 | 2 | 0.39 (≈ 0.708 µg/mL) | 25 (≈ 45.4 µg/mL) | 16 | 0.39 (≈ 0.708 µg/mL) | 4 | 2 | 0.39 (≈ 0.708 µg/mL) | 12.5 (≈ 22.7 µg/mL) | 190 | 0.39 (≈ 0.708 µg/mL) | 2 | 0.78 (≈ 1.42 µg/mL) | 8 | ≥ 250 | 0.78 (≈ 1.42 µg/mL) | MIC-fold improvement vs. vancomycin [13]: 128; MIC-fold improvement vs. vancomycin [14]: 2; MIC [14]: 0.39 µM (≈ 0.708 µg/mL); MIC-fold improvement vs. vancomycin [15]: 2; MIC [15]: 0.39 µM (≈ 0.708 µg/mL); MIC [16]: 3.13 µM (≈ 5.68 µg/mL); MIC-fold improvement vs. vancomycin [16]: 64 |
| CN[C@H](CC(C)C)C(=O)N[C@H]1C(=O)N[C@@H](CC(N)=O)C(=O)N[C@H]2C(=O)N[C@H]3C(=O)N[C@H](C(=O)N[C@H](C(=O)NCCNC(=O)/C=C/c4ccc(NS(=O)(=O)c5ccc(Cl)cc5Cl)cc4)c4cc(O)cc(O)c4-c4cc3ccc4O)[C@H](O)c3ccc(c(Cl)c3)Oc3cc2cc(c3O[C@@H]2O[C@H](CO)[C@@H](O)[C@H](O)[C@H]2O[C@H]2C[C@](C)(N)[C@H](O)[C@H](C)O2)Oc2ccc(cc2Cl)[C@H]1O [Vanc-64] | 6.25 (≈ 11.5 µg/mL) | 64 | 102 ± 39 | > 250 | 4 | 0.20 (≈ 0.369 µg/mL) | 12.5 (≈ 23.1 µg/mL) | 32 | 0.39 (≈ 0.72 µg/mL) | 4 | 2 | 0.39 (≈ 0.72 µg/mL) | 6.25 (≈ 11.5 µg/mL) | 187 | 0.39 (≈ 0.72 µg/mL) | 2 | 0.78 (≈ 1.44 µg/mL) | 8 | 210 ± 56 | 0.39 (≈ 0.72 µg/mL) | MIC-fold improvement vs. vancomycin [8]: 64; MIC-fold improvement vs. vancomycin [13]: 256; MIC-fold improvement vs. vancomycin [14]: 4; MIC [14]: 0.20 µM (≈ 0.369 µg/mL); MIC-fold improvement vs. vancomycin [15]: 4; MIC [15]: 0.20 µM (≈ 0.369 µg/mL); MIC [16]: 3.13 µM (≈ 5.78 µg/mL); MIC-fold improvement vs. vancomycin [16]: 64 |
| CNC(CC(C)C)C(=O)NC1C(=O)NC(CC(N)=O)C(=O)NC2C(=O)NC3C(=O)NC(C(=O)NC(C(=O)NCCCNC(=O)c4ccc5cc(NS(=O)(=O)c6ccc(C)cc6)ccc5c4)c4cc(O)cc(O)c4-c4cc3ccc4O)C(O)c3ccc(c(Cl)c3)Oc3cc2cc(c3OC2OC(CO)C(O)C(O)C2OC2CC(C)(N)C(O)C(C)O2)Oc2ccc(cc2Cl)C1O (centres unmarked) [Vanc-65] | 6.25 (≈ 11.4 µg/mL) | 64 | 54 ± 45 | > 250 | 4 | 0.20 (≈ 0.366 µg/mL) | 25 (≈ 45.7 µg/mL) | 16 | 0.39 (≈ 0.713 µg/mL) | 4 | 2 | 0.39 (≈ 0.713 µg/mL) | 6.25 (≈ 11.4 µg/mL) | 185 | 0.39 (≈ 0.713 µg/mL) | 2 | 0.78 (≈ 1.43 µg/mL) | 8 | ≥ 250 | 0.39 (≈ 0.713 µg/mL) | MIC-fold improvement vs. vancomycin [8]: 64; MIC-fold improvement vs. vancomycin [13]: 256; MIC-fold improvement vs. vancomycin [14]: 2; MIC [14]: 0.39 µM (≈ 0.713 µg/mL); MIC-fold improvement vs. vancomycin [15]: 1; MIC [15]: 0.78 µM (≈ 1.43 µg/mL); MIC [16]: 3.13 µM (≈ 5.72 µg/mL); MIC-fold improvement vs. vancomycin [16]: 64 |
